Data: patent publication US12435071B2, “Bryostatin compounds and methods of preparing the same” (priority 2016, dated 2025)
Like-named read-outs stand apart in the source and are kept apart here.

Legend:
PKC beta-I = biological target: T1, PKC beta-I (Homo sapiens, UniProt P05771); assay: PKC binding assay, competition with 3H-PDBu (glass-fiber filtration)
T1 construct: purchased Invitrogen
Description: (§1) This procedure entails a glass-fiber filtration method to determine bound radioligand. PKC-beta-I and PKC-delta were selected for preliminary evaluation. The former is a member of the conventional PKC subfamily while the latter is a member of the novel PKC sub-family (A. C. Newton. Protein Kinase C: Structure, Function, and Regulation. J. Biol. Chem. 270, 28495-28498 (1995)).
(§2) To a 50 mL polypropylene tube was added Tris-HCl (pH 7.4, 1 M, 1 mL), KCl (1 M, 2 mL), CaCl2 (0.1 M, 30 μL), and bovine serum albumin (40 mg, Sigma-Aldrich). This mixture was diluted to 20 mL with deionized H2O and mixed gently. The buffer was stored on ice until use.
(§3) For every two assays, 3.5 mg phosphatidylserine (Avanti Polar Lipids, porcine, 25 mg/mL CHCl3 solution) was concentrated by removing chloroform under a stream of nitrogen followed by reduced pressure. The solid P S was suspended as vesicles in freshly prepared PKC binding assay buffer (3.5 mL) by sonicating six times for 30 sec, with a 30 sec rest between sonications (Branson Sonifier 250, power=2, 50% duty cycle). The resulting milky cloudy mixture (1 mg/mL) was stored on ice until use.
(§4) Assay PKC was prepared by dissolving a 4 μg aliquot of the indicated recombinant human PKC isoform (Invitrogen) into 11.6 mL of PKC binding assay buffer (this amount is sufficient for two assays). The diluted PKC was stored on ice for immediate use.
(§5) The resulting 500 nM stock solution was further diluted with DMSO to 30 nM.
(§6) Compound dilutions were prepared by serially diluting from a chosen “high” concentration by factors of 3 or 4. For each analog compound, seven concentrations were used to define the inhibition curve (i.e. for exocyclic alkene 34, the analog concentrations used were 3000 nM, 750 nM, 188 nM, 46.9 nM, 11.7 nM, 2.93 nM, and 0.73 nM).
(§7) The resulting solution was vortexed to mix and stored on ice.
(§8) • Glass-fiber filters (Whatman GF/B) were prepared by soaking them in a solution of aqueous polyethyleneimine (10% by vol, 18 mL) in deionized water (600 mL) for >1 h. • 500 mL “rinsing buffer” of 20 mM Tris, pH 7.4 was cooled on ice for the duration of the incubation period and for the remainder of the assay.
(§9) Triplicate data points were obtained for each analog concentration. […]
(§10) The resulting filters had circular perforations for each data point, which were removed with forceps and placed in a scintillation vial. Scintillation vials were filled with Bio-Safe II scintillation fluid (5 mL) and measured for radioactivity using a Beckman LS 6000SC scintillation counter. […] The data were plotted—cpm vs. log(concentration)—using Prism® by GraphPad Software and an IC50 was determined using that program's built-in one-site competition least squares regression function.

PKC delta = biological target: T2, PKC delta (Homo sapiens, UniProt Q05655); assay: as above; details: recombinant human PKC isoform, parentheses = 95% confidence interval
T2 construct: purchased Invitrogen
Description: as §1, §2, §3, §4, §5, §6, §7, §8, §9, §10

[1] = recombinant human PKC isoform, competition with 3H-PDBu, parentheses = 95% confidence interval, read-out: PKC Ki (nM) beta-1

T1 sequence (P05771 whole entry): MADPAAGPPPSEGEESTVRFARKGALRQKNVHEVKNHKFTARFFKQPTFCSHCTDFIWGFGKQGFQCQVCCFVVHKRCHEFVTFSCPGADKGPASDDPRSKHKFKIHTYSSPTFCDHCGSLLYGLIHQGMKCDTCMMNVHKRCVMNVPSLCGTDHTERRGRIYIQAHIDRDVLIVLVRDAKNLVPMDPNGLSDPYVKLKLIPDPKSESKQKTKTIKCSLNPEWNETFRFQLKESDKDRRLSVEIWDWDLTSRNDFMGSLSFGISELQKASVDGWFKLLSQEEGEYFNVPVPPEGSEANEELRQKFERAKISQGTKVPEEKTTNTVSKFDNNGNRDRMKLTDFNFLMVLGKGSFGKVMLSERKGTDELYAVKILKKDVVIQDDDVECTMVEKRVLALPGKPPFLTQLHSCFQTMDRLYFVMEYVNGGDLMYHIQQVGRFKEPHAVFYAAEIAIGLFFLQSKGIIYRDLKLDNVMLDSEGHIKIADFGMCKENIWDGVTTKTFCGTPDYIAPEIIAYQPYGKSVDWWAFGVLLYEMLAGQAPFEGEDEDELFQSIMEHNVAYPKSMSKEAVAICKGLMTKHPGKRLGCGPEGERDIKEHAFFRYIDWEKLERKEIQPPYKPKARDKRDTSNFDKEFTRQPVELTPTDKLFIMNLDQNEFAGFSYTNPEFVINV
T2 sequence (Q05655 whole entry, canonical isoform): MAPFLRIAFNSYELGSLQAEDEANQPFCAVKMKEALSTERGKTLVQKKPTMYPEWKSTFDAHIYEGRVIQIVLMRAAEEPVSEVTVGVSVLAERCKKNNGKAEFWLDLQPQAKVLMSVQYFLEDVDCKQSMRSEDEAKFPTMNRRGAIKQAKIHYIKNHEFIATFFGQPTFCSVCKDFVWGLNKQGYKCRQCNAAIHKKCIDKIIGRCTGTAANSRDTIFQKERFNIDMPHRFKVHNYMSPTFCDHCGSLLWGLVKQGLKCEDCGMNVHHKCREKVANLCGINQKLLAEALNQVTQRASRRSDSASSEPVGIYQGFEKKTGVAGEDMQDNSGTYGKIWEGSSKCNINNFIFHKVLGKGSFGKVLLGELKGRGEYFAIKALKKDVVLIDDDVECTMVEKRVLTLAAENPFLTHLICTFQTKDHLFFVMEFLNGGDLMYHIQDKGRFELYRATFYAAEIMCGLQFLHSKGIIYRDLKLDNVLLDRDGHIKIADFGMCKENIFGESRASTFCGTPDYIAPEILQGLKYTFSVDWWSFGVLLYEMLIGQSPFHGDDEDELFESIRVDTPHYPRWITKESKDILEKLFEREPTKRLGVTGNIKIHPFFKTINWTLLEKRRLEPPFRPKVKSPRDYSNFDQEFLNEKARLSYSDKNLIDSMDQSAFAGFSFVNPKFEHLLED

Row | SMILES | Ki (PKC beta-I) | Ki (PKC delta) | Ki (PKC beta-I; [1])
1 | CCC/C=C/C=C/C(=O)O[C@H]1/C(=C/C(=O)OC)C[C@H]2CC([C@@H](C)O)OC(=O)C[C@@H](O)C[C@@H]3C[C@H](OC(C)=O)C(C)(C)[C@](O)(C[C@@H]4C/C(=C\C(=O)OC)C[C@H](/C=C/C(C)(C)[C@]1(O)O2)O4)O3 (stereo partly shown) [(E)-enoate 35] | 12 nM | – | –
2 | C=C1C[C@H]2C[C@]3(O)O[C@H](C[C@H](O)CC(=O)OC([C@@H](C)O)C[C@@H]4C/C(=C\C(=O)OC)[C@H](OC(=O)C#CCCCCC)[C@@](O)(O4)C(C)(C)/C=C/[C@@H](C1)O2)C[C@H](OC(C)=O)C3(C)C (stereo partly shown) [alkene 34] | – | 0.76 nM | 3.9 nM
3 | CCC/C=C/C=C/C(=O)O[C@H]1/C(=C/C(=O)OC)C[C@H]2C[C@H]([C@@H](C)O)OC(=O)C[C@H](O)C[C@@H]3C[C@H](OC(C)=O)C(C)(C)[C@](O)(C[C@@H]4C/C(=C/C(=O)OC)C[C@H](/C=C/C(C)(C)[C@]1(O)O2)O4)O3 [bryostatin 1, reference compound] | – | – | 1.6 nM
